pIC50: −log10 of the molar value. Read-outs that look alike come from different tables or passages of the source.
Columns and labels:
Assay type in all cases: biochemical
PI3Kγ = molecular target: T1, PI3Kγ (Homo sapiens, UniProt P48736); experiment: TR-FRET enzymatic activity assay, PI3Kγ; settings: read-out: PI3Kγ IC50
T1 construct: made in house
Method in brief: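 Each PI3K isoform is tested in an enzymatic format. Signal comes from time-resolved fluorescence energy transfer.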

PI3Kδ = molecular target: T2, PI3Kδ (Homo sapiens, UniProt O00329); experiment: TR-FRET enzymatic activity assay, PI3Kδ; settings: Table 2; TR-FRET, 2x Km ATP, 30 minutes at 25° C.
T2 construct: made in house
T2 sequence (O00329 whole entry): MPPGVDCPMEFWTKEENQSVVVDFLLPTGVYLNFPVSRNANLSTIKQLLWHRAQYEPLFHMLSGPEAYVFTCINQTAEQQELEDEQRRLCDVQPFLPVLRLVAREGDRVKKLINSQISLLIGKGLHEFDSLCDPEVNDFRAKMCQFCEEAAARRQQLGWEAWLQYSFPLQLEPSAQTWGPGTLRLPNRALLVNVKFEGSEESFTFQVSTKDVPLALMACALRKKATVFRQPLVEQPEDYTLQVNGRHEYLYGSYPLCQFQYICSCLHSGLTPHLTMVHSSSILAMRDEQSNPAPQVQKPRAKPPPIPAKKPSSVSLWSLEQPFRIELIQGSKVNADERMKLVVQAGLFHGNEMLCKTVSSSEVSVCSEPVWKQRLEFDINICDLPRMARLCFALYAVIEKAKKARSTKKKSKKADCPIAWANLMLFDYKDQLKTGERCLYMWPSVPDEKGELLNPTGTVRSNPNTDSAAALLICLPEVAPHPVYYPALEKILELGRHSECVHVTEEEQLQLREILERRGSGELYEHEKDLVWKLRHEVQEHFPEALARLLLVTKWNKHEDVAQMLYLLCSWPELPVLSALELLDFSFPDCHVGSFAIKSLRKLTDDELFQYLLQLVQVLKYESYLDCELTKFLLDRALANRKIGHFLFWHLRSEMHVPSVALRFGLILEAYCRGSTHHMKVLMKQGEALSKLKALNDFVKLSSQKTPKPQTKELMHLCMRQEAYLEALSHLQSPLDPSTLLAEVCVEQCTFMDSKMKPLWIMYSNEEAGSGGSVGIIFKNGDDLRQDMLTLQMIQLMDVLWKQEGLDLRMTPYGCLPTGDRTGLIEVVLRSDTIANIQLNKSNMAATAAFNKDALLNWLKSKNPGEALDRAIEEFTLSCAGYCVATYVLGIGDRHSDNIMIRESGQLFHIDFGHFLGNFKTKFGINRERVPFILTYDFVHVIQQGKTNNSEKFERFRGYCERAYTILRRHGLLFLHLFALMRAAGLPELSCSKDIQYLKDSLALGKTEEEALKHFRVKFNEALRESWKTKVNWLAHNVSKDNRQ
T2 sequence (P27986 whole entry partner): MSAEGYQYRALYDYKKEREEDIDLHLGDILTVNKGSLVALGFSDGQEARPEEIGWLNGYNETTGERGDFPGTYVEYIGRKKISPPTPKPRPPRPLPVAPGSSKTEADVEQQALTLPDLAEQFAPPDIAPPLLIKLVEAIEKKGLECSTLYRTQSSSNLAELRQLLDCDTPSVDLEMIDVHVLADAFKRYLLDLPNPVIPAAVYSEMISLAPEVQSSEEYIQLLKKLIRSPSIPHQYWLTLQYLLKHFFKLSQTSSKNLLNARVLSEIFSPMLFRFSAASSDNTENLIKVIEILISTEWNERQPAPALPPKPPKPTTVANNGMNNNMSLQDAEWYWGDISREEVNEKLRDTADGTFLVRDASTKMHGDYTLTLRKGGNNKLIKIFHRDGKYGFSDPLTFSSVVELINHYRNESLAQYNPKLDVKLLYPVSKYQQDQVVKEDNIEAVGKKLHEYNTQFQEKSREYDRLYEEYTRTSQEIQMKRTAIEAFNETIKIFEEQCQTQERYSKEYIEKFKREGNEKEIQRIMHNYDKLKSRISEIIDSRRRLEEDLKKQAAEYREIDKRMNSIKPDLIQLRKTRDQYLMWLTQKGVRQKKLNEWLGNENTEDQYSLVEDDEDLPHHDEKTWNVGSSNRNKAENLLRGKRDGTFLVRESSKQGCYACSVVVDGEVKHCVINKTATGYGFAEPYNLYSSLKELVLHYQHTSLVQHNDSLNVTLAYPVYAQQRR

PI3Kβ = molecular target: T3, PI3Kβ (Homo sapiens, UniProt P42338); experiment: TR-FRET enzymatic activity assay, PI3Kβ; settings: Table 2; TR-FRET, 2x Km ATP, 30 minutes at 25° C.
T3 construct: made in house
T3 sequence (P42338 whole entry): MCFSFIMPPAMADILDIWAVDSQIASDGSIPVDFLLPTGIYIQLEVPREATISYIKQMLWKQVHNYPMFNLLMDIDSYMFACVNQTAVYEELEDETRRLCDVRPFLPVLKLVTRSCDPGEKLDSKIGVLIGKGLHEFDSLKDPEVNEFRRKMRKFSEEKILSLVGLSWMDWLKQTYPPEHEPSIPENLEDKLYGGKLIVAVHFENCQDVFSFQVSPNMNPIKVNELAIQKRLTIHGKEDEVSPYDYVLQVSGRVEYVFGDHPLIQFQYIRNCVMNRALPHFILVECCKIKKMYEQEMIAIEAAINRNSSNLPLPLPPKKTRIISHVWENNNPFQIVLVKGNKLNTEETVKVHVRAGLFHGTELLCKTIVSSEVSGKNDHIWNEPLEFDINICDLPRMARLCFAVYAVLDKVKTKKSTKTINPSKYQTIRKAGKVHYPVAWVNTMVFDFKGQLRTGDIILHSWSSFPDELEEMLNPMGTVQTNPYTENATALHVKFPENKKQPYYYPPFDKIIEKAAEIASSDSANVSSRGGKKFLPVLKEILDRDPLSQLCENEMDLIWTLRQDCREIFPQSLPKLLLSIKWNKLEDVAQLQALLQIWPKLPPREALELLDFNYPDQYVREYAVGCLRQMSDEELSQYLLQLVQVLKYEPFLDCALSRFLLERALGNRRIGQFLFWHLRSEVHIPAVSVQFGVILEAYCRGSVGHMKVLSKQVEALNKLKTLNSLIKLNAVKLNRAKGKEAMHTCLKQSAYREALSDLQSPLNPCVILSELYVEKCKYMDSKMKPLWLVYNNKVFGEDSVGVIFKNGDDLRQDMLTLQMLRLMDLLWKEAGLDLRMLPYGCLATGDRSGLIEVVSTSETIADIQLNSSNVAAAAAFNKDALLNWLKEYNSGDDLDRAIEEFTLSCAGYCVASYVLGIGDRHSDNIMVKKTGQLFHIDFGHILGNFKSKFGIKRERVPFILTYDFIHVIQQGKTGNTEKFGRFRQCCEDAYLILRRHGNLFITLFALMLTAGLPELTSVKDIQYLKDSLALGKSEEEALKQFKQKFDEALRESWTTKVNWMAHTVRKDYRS
T3 sequence (P27986 whole entry partner): as the sequence (P27986 whole entry partner) above

[1] = Table 2, TR-FRET, 2x Km ATP, 30 minutes at 25° C.

T1 sequence (P48736 whole entry): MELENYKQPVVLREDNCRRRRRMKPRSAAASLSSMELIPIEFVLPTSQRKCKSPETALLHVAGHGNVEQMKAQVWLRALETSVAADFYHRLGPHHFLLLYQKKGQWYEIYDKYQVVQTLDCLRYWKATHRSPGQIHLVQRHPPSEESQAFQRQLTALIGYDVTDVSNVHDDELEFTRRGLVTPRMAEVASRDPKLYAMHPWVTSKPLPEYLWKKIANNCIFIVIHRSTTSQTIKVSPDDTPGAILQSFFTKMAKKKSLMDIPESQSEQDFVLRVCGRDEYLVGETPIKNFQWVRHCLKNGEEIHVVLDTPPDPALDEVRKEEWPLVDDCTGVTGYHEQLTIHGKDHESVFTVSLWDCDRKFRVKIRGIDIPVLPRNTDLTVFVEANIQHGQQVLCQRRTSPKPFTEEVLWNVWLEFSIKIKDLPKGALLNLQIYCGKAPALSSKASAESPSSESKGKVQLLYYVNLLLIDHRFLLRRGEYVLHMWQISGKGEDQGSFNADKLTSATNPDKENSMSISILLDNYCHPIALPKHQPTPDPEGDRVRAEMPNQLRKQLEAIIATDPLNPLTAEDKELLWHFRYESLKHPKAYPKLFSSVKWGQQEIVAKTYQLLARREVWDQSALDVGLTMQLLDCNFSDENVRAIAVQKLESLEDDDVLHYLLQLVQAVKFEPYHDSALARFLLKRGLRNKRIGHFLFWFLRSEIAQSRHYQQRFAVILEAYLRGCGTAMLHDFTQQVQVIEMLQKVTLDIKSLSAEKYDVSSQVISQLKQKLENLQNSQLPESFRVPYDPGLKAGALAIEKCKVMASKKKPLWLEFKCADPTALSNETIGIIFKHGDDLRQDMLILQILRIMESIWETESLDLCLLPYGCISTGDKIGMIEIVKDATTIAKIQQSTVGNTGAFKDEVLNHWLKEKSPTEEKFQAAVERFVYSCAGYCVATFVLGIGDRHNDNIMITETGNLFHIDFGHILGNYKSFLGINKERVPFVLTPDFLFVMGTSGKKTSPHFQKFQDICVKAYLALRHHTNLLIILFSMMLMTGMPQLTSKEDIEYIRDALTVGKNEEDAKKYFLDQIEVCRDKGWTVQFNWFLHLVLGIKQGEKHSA

| Compound | pIC50 (PI3Kγ; [1]) | pIC50 (PI3Kδ) | pIC50 (PI3Kβ) | pIC50 (PI3Kγ) |
| --- | --- | --- | --- | --- |
| CC[C@H](Nc1nc(N)nc(N)c1C#N)c1nc2cccc(Cl)c2c(=O)n1-c1n[nH]cc1Br [Compound 83, (S)-2,4-diamino-6-((1-(3-(4-bromo-1H-pyrazol-3-yl)-5-chloro-4-oxo-3,4-dihydroquinazolin-2-yl)propyl)amino)pyrimidine-5-carbonitrile] | 6.62 | 9.00 | 7.89 | – |
| C[C@H](Nc1nc(N)nc(N)c1C#N)c1nc2cccc(Cl)c2c(=O)n1-c1n[nH]cc1Br [Compound 84, (S)-2,4-diamino-6-((1-(3-(4-bromo-1H-pyrazol-3-yl)-5-chloro-4-oxo-3,4-dihydroquinazolin-2-yl)ethyl)amino)pyrimidine-5-carbonitrile] | 7.03 | 9.40 | 8.10 | – |
| C[C@H](Nc1ncnc2scnc12)c1nc2c(Cl)ccc(Cl)c2c(=O)n1-c1n[nH]cc1Br [Compound 85, (S)-3-(4-bromo-1H-pyrazol-3-yl)-5,8-dichloro-2-(1-(thiazolo[5,4-d]pyrimidin-7-ylamino)ethyl)quinazolin-4(3H)-one] | 5.05 | 8.40 | 6.77 | – |
| CC[C@H](Nc1ncnc2scnc12)c1nc2c(Cl)ccc(Cl)c2c(=O)n1-c1n[nH]cc1Br [Compound 86, (S)-3-(4-bromo-1H-pyrazol-3-yl)-5,8-dichloro-2-(1-(thiazolo[5,4-d]pyrimidin-7-ylamino)propyl)quinazolin-4(3H)-one] | – | 7.72 | 6.47 | < 5.00 |
| CC[C@H](Nc1ncnc2scnc12)c1nc2cccc(S(C)(=O)=O)c2c(=O)n1-c1cc[nH]n1 [Compound 87, (S)-5-(methylsulfonyl)-3-(1H-pyrazol-3-yl)-2-(1-(thiazolo[5,4-d]pyrimidin-7-ylamino)propyl)quinazolin-4(3H)-one] | 5.09 | 9.40 | 7.15 | – |
| CC[C@H](Nc1nc(Cl)nc2[nH]nc(C)c12)c1nc2c(Cl)ccc(Cl)c2c(=O)n1-c1cc[nH]n1 [Compound 88, (S)-5,8-dichloro-2-(1-((6-chloro-3-methyl-1H-pyrazolo[3,4-d]pyrimidin-4-yl)amino)propyl)-3-(1H-pyrazol-3-yl)quinazolin-4(3H)-one] | – | 5.57 | 5.38 | < 5.00 |
| Cc1n[nH]c2nc(Cl)nc(N[C@@H](C)c3nc4cccc(Cl)c4c(=O)n3-c3cc[nH]n3)c12 [Compound 89, (S)-5-chloro-2-(1-((6-chloro-3-methyl-1H-pyrazolo[3,4-d]pyrimidin-4-yl)amino)ethyl)-3-(1H-pyrazol-3-yl)quinazolin-4(3H)-one] | – | 5.72 | 5.51 | < 5.00 |
| C[C@H](Nc1nc(N)nc2[nH]ncc12)c1nc2cccc(Cl)c2c(=O)n1-c1cc[nH]n1 [Compound 90, (S)-2-(1-((6-amino-1H-pyrazolo[3,4-d]pyrimidin-4-yl)amino)ethyl)-5-chloro-3-(1H-pyrazol-3-yl)quinazolin-4(3H)-one] | – | 6.08 | 5.74 | < 5.00 |
| C[C@H](Nc1nc(Cl)nc2[nH]ncc12)c1nc2cccc(Cl)c2c(=O)n1-c1cc[nH]n1 [Compound 91, (S)-5-chloro-2-(1-((6-chloro-1H-pyrazolo[3,4-d]pyrimidin-4-yl)amino)ethyl)-3-(1H-pyrazol-3-yl)quinazolin-4(3H)-one] | – | 5.62 | 5.44 | < 5.00 |
| C[C@H](Nc1nc(N)nc2[nH]nc(Br)c12)c1nc2cccc(Cl)c2c(=O)n1-c1cc[nH]n1 [Compound 92, (S)-2-(1-((6-amino-3-bromo-1H-pyrazolo[3,4-d]pyrimidin-4-yl)amino)ethyl)-5-chloro-3-(1H-pyrazol-3-yl)quinazolin-4(3H)-one] | 5.42 | 8.22 | 8.00 | – |
| CC[C@H](Nc1nc(N)nc(C)c1C#N)c1nc2c(C#N)cccc2c(=O)n1-c1cn[nH]c1 [Compound 93, (S)-2-(1-((2-amino-5-cyano-6-methylpyrimidin-4-yl)amino)propyl)-4-oxo-3-(1H-pyrazol-4-yl)-3,4-dihydroquinazoline-8-carbonitrile] | 5.42 | 8.05 | 7.80 | – |
| CC[C@H](Nc1ncnc2ccc(Cl)nc12)c1nc2c(C#N)cccc2c(=O)n1-c1cn[nH]c1 [Compound 94, (S)-2-(1-((6-chloropyrido[3,2-d]pyrimidin-4-yl)amino)propyl)-4-oxo-3-(1H-pyrazol-4-yl)-3,4-dihydroquinazoline-8-carbonitrile] | 5.82 | 8.10 | 7.00 | – |
| CC[C@H](Nc1nc(N)nc(N)c1Cl)c1nc2c(C#N)cccc2c(=O)n1-c1cn[nH]c1 [Compound 95, (S)-2-(1-((2,6-diamino-5-chloropyrimidin-4-yl)amino)propyl)-4-oxo-3-(1H-pyrazol-4-yl)-3,4-dihydroquinazoline-8-carbonitrile] | – | 6.52 | 5.77 | < 5.00 |
| CC[C@H](Nc1nc(N)nc(Cl)c1C#N)c1nc2c(C#N)cccc2c(=O)n1-c1cc[nH]n1 [Compound 96, (S)-2-(1-((2-amino-6-chloro-5-cyanopyrimidin-4-yl)amino)propyl)-4-oxo-3-(1H-pyrazol-3-yl)-3,4-dihydroquinazoline-8-carbonitrile] | – | 7.92 | 7.66 | < 5.00 |
| CC[C@H](Nc1nc(N)nc(N)c1C#N)c1nc2cccc(C#N)c2c(=O)n1-c1cc[nH]n1 [Compound 97, (S)-2-(1-((2,6-diamino-5-cyanopyrimidin-4-yl)amino)propyl)-4-oxo-3-(1H-pyrazol-3-yl)-3,4-dihydroquinazoline-5-carbonitrile] | 5.43 | 7.80 | 7.77 | – |
| CC[C@H](Nc1nc(N)nc(N)c1C#N)c1nc2cccc(Br)c2c(=O)n1-c1cc[nH]n1 [Compound 98, (S)-2,4-diamino-6-((1-(5-bromo-4-oxo-3-(1H-pyrazol-3-yl)-3,4-dihydroquinazolin-2-yl)propyl)amino)pyrimidine-5-carbonitrile] | 6.96 | 9.22 | 9.52 | – |
| CC[C@H](Nc1nc(N)nc(N)c1C#N)c1nc2cccc(Br)c2c(=O)n1-c1cn[nH]c1 [Compound 99, (S)-2,4-diamino-6-((1-(5-bromo-4-oxo-3-(1H-pyrazol-4-yl)-3,4-dihydroquinazolin-2-yl)propyl)amino)pyrimidine-5-carbonitrile] | 7.03 | 9.00 | 9.10 | – |
| CC[C@H](Nc1ncnc2scnc12)c1nc2cccc(Br)c2c(=O)n1-c1cn[nH]c1 [Compound 100, (S)-5-bromo-3-(1H-pyrazol-4-yl)-2-(1-(thiazolo[5,4-d]pyrimidin-7-ylamino)propyl)quinazolin-4(3H)-one] | 6.55 | 8.40 | 7.66 | – |
| CC[C@H](Nc1ncnc2scnc12)c1nc2cccc(Br)c2c(=O)n1-c1cc[nH]n1 [Compound 101, (S)-5-bromo-3-(1H-pyrazol-3-yl)-2-(1-(thiazolo[5,4-d]pyrimidin-7-ylamino)propyl)quinazolin-4(3H)-one] | 6.02 | 9.30 | 9.00 | – |
| CC[C@H](Nc1nc(N)nc(N)c1C#N)c1nc2cccc(C#N)c2c(=O)n1-c1cn[nH]c1 [Compound 102, (S)-2-(1-((2,6-diamino-5-cyanopyrimidin-4-yl)amino)propyl)-4-oxo-3-(1H-pyrazol-4-yl)-3,4-dihydroquinazoline-5-carbonitrile] | 5.60 | 7.54 | 7.09 | – |
